Patent US10081624B2, “Heterocyclic compound” (Takeda Pharmaceutical Company Limited, priority 2014, dated 2018)

What was measured:
HDAC1 enzyme = biological target: T1, HDAC1 enzyme (Homo sapiens, UniProt Q13547); test: HDAC1 enzyme inhibitory assay (HDAC-Glo I/II Assay kit); type: biochemical; conditions: 1 μM test compound; for inhibition at 1 µM: read-out: HDAC1 inhibitory rate (%) (1 μM)
T1 construct: prepared by transducing full length HDAC1 and HDAC6 genes into Sf-9 insect cells; GST; purchased SignalChem; host or cells: Sf-9 insect cells
T1 sequence (Q13547 whole entry): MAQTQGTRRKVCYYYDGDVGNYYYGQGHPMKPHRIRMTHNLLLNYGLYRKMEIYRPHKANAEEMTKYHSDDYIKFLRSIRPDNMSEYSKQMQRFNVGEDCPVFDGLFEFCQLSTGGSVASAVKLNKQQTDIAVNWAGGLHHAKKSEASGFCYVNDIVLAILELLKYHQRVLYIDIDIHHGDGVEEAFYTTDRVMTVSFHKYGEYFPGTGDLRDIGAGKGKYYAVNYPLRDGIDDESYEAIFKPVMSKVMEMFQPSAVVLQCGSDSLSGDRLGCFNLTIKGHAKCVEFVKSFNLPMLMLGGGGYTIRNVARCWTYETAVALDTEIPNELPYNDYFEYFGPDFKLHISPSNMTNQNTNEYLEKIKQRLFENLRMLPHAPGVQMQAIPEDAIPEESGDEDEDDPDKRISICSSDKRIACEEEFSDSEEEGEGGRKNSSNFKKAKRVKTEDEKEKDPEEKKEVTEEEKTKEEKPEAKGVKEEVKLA
In short: (§1)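 Relative activity was calculated from luminescence, with wells lacking enzyme defined as 100% inhibition. The enzymes were full-length HDAC1 or HDAC6 from Sf-9 cells, preincubated with test compound for 60 min before a 20-min substrate-developer reaction at room temperature.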

HDAC6 enzyme = biological target: T2, HDAC6 enzyme (Homo sapiens, UniProt Q9UBN7); test: HDAC6 enzyme inhibitory assay (HDAC-Glo I/II Assay kit); type: biochemical; conditions: 1 μM test compound; for inhibition at 1 µM: read-out: HDAC6 inhibitory rate (%) (1 μM)
T2 construct: prepared by transducing full length HDAC1 and HDAC6 genes into Sf-9 insect cells; GST; purchased SignalChem; host or cells: Sf-9 insect cells
T2 sequence (Q9UBN7 1-1215): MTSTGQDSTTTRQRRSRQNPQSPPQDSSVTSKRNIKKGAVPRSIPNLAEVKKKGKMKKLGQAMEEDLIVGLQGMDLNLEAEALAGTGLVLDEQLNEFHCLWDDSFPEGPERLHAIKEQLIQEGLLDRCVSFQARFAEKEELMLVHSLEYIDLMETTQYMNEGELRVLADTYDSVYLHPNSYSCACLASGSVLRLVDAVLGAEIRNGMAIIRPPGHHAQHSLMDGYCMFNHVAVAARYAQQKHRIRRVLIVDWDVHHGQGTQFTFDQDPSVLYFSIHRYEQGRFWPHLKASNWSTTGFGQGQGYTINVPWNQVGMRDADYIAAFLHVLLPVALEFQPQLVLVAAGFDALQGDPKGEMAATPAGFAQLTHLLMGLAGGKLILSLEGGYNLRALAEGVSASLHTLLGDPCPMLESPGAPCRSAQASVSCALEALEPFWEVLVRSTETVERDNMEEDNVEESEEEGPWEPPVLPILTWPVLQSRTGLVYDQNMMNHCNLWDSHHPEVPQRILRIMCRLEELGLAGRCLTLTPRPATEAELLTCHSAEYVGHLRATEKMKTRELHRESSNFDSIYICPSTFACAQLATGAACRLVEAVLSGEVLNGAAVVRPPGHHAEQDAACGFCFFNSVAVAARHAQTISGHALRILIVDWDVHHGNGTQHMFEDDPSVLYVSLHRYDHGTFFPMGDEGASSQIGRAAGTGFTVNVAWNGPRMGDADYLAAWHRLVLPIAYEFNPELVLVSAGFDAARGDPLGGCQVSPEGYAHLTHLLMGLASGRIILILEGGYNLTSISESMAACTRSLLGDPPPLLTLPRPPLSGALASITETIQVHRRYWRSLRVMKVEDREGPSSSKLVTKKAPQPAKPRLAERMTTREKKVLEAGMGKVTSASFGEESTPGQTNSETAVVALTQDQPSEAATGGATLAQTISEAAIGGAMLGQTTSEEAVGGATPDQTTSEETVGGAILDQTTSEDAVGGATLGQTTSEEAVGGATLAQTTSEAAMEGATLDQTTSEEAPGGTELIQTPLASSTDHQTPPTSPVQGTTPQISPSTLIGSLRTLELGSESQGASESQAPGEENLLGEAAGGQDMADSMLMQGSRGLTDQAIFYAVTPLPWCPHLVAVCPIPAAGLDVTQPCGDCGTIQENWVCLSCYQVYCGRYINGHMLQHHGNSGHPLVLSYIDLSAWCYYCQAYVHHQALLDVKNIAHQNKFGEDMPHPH
In short: as §1

SMILES	inhibition at 1 µM (HDAC1 enzyme)	inhibition at 1 µM (HDAC6 enzyme)	HDAC6 inhibitory rate (%) (1 μM) (HDAC6 enzyme)	HDAC1 inhibitory rate (%) (1 μM) (HDAC1 enzyme; 1 µM)
O=C(NCC1COCCN1C(=O)C1CCNC1=O)c1ccc(-c2noc(C(F)(F)F)n2)cc1 (stereo in doubt) [Example 104, N-(((3S)-4-((2-oxopyrrolidin-3-yl)carbonyl)morpholin-3-yl)methyl)-4-(5-(trifluoromethyl)-1,2,4-oxadiazol-3-yl)benzamide]	9%	57%		
O=C(NC[C@H]1COCCN1C(=O)C1CCCC1)c1ccc(-c2noc(C(F)(F)F)n2)cc1 [Example 77, N-(((3S)-4-(cyclopentylcarbonyl)morpholin-3-yl)methyl)-4-(5-(trifluoromethyl)-1,2,4-oxadiazol-3-yl)benzamide]	18%	98%		
O=C(NC[C@@H]1COCCN1C(=O)c1cc(Cl)cc(Cl)c1)c1ccc(-c2noc(C(F)(F)F)n2)cn1 [Example 209, N-(((3R)-4-(3,5-dichlorobenzoyl)morpholin-3-yl)methyl)-5-(5-(trifluoromethyl)-1,2,4-oxadiazol-3-yl)pyridine-2-carboxamide]	21%	95%		
N#Cc1cc(F)cc(C(=O)N2CCOC[C@@H]2CNC(=O)c2ccc(-c3noc(C(F)(F)F)n3)cc2)c1 [Example 40, N-(((3S)-4-(3-cyano-5-fluorobenzoyl)morpholin-3-yl)methyl)-4-(5-(trifluoromethyl)-1,2,4-oxadiazol-3-yl)benzamide]	17%	99%		
O=C(NCC1COCCN1C(=O)N1CCOCC1)c1ccc(-c2noc(C(F)(F)F)n2)cc1 (stereo in doubt) [Example 99, N-(((3S)-4-(morpholin-4-ylcarbonyl)morpholin-3-yl)methyl)-4-(5-(trifluoromethyl)-1,2,4-oxadiazol-3-yl)benzamide]	9%	99%		
O=C(NC[C@H]1COCCN1C(=O)N1CCCC2(COC2)C1)c1ccc(-c2noc(C(F)(F)F)n2)cc1 [Example 281, N-(((3S)-4-(2-oxa-6-azaspiro[3.5]non-6-ylcarbonyl)morpholin-3-yl)methyl)-4-(5-(trifluoromethyl)-1,2,4-oxadiazol-3-yl)benzamide]	7%	93%		
O=C(NC[C@H]1COCCN1C(=O)c1ccncc1)c1ccc(-c2noc(C(F)(F)F)n2)cc1 [Example 48, N-(((3S)-4-isonicotinoylmorpholin-3-yl)methyl)-4-(5-(trifluoromethyl)-1,2,4-oxadiazol-3-yl)benzamide]	16%		98%	
O=C(NC[C@H]1COCCN1C(=O)c1ccccc1N1CCOCC1)c1ccc(-c2noc(C(F)(F)F)n2)cc1 [Example 46, N-(((3S)-4-(2-(morpholin-4-yl)benzoyl)morpholin-3-yl)methyl)-4-(5-(trifluoromethyl)-1,2,4-oxadiazol-3-yl)benzamide]			95%	12%
O=C(NCC1COCCN1C(=O)c1cccc(-c2ccccc2)c1)c1ccc(-c2noc(C(F)(F)F)n2)cc1 (centres unmarked) [Example 31, N-((4-(biphenyl-3-ylcarbonyl)morpholin-3-yl)methyl)-4-(5-(trifluoromethyl)-1,2,4-oxadiazol-3-yl)benzamide]	28%	96%		
C[C@H]1CCCN1C(=O)N1CCOC[C@@H]1CNC(=O)c1ccc(-c2noc(C(F)(F)F)n2)cc1 [Example 288, N-(((3S)-4-(((2S)-2-methylpyrrolidin-1-yl)carbonyl)morpholin-3-yl)methyl)-4-(5-(trifluoromethyl)-1,2,4-oxadiazol-3-yl)benzamide]	3%	102%		
O=C(NCC1COCCN1C(=O)c1ccccc1-c1ccccc1)c1ccc(-c2noc(C(F)(F)F)n2)cc1 (centres unmarked) [Example 32, N-((4-(biphenyl-2-ylcarbonyl)morpholin-3-yl)methyl)-4-(5-(trifluoromethyl)-1,2,4-oxadiazol-3-yl)benzamide]	23%	96%		
Cn1nccc1C(=O)N1CCCC[C@@H]1CNC(=O)c1ccc(-c2noc(C(F)(F)F)n2)cc1 [Example 164, N-(((2R)-1-((1-methyl-1H-pyrazol-5-yl)carbonyl)piperidin-2-yl)methyl)-4-(5-(trifluoromethyl)-1,2,4-oxadiazol-3-yl)benzamide]	17%	98%		
O=C(NC[C@H]1COCCN1C(=O)N1CCC(c2cccnc2)C1)c1ccc(-c2noc(C(F)(F)F)n2)cc1 (stereo partly drawn) [Example 294, N-(((3S)-4-((3-(pyridin-3-yl)pyrrolidin-1-yl)carbonyl)morpholin-3-yl)methyl)-4-(5-(trifluoromethyl)-1,2,4-oxadiazol-3-yl)benzamide]	5%	82%		

The next lines start with the values.

inhibition at 1 µM (HDAC1 enzyme)	inhibition at 1 µM (HDAC6 enzyme)	HDAC6 inhibitory rate (%) (1 μM) (HDAC6 enzyme)	HDAC1 inhibitory rate (%) (1 μM) (HDAC1 enzyme; 1 µM)	SMILES
25%	100%			Cn1nccc1C(=O)N1CCOC[C@@H]1CNC(=O)c1ccc(-c2noc(C(F)(F)F)n2)cc1 [Example 38, N-(((3S)-4-((1-methyl-1H-pyrazol-5-yl)carbonyl)morpholin-3-yl)methyl)-4-(5-(trifluoromethyl)-1,2,4-oxadiazol-3-yl)benzamide]
23%	96%			O=C(NCC1COCCN1C(=O)c1ccccc1)c1ccc(-c2noc(C(F)(F)F)n2)s1 (centres unmarked) [Example 210, N-((4-benzoylmorpholin-3-yl)methyl)-5-(5-(trifluoromethyl)-1,2,4-oxadiazol-3-yl)thiophene-2-carboxamide]
18%	100%			O=C(NCC1COCCN1C(=O)c1cccc(F)c1)c1ccc(-c2noc(C(F)(F)F)n2)cc1 (centres unmarked) [Example 4, N-((4-(3-fluorobenzoyl)morpholin-3-yl)methyl)-4-(5-(trifluoromethyl)-1,2,4-oxadiazol-3-yl)benzamide]
48%	99%			Cc1nonc1C(=O)N1CCOC[C@H]1CNC(=O)c1ccc(-c2noc(C(F)(F)F)n2)s1 [Example 264, N-(((3R)-4-((4-methyl-1,2,5-oxadiazol-3-yl)carbonyl)morpholin-3-yl)methyl)-5-(5-(trifluoromethyl)-1,2,4-oxadiazol-3-yl)thiophene-2-carboxamide]
5%	95%			Cc1nn(C)c(C)c1C(=O)N1CCOC[C@@H]1CNC(=O)c1ccc(-c2noc(C(F)(F)F)n2)cc1 [Example 67, 4-(5-(trifluoromethyl)-1,2,4-oxadiazol-3-yl)-N-(((3S)-4-((1,3,5-trimethyl-1H-pyrazol-4-yl)carbonyl)morpholin-3-yl)methyl)benzamide]
36%	96%			Cn1nc2ccccc2c1C(=O)N1CCOCC1CNC(=O)c1ccc(-c2noc(C(F)(F)F)n2)s1 (centres unmarked) [Example 251, N-((4-((2-methyl-2H-indazol-3-yl)carbonyl)morpholin-3-yl)methyl)-5-(5-(trifluoromethyl)-1,2,4-oxadiazol-3-yl)thiophene-2-carboxamide]
3%	24%			Cc1cc(-c2noc(C(F)(F)F)n2)ccc1C(=O)NCC1COCCN1C(=O)c1ccccc1 (centres unmarked) [Example 178, N-((4-benzoylmorpholin-3-yl)methyl)-2-methyl-4-(5-(trifluoromethyl)-1,2,4-oxadiazol-3-yl)benzamide]
10%	97%			O=C(NC[C@H]1COCCN1C(=O)c1ccno1)c1ccc(-c2noc(C(F)(F)F)n2)cc1 [Example 61, N-(((3S)-4-(1,2-oxazol-5-ylcarbonyl)morpholin-3-yl)methyl)-4-(5-(trrfluoromethyl)-1,2,4-oxadiazol-3-yl)benzamide]
38%	100%			Cc1noc(C)c1C(=O)N1CCOC[C@@H]1CNC(=O)c1ccc(-c2noc(C(F)(F)F)n2)cc1 [Example 88, N-(((3S)-4-((3,5-dimethyl-1,2-oxazol-4-yl)carbonyl)morpholin-3-yl)methyl)-4-(5-(trifluoromethyl)-1,2,4-oxadiazol-3-yl)benzamide]
